Experimental data taken from patent US5294617A, “Angiotensin II receptor blocking 2,3,6 substituted quinazolinones” (American Cyanamid Company, priority 1993, dated 1994).
Values joined by “and” are separate entries in the source; they are usually repeats but may differ in a detail not shown here. Identical values can stand only once.

Tested on: ANGIOTENSIN II (AII) VASOPRESSOR RESPONSE
Assay: AII Challenge: angiotensin II vasopressor response in conscious spontaneously hypertensive rats
Format: in vivo, Conscious Male Okamoto-Aoki SHR (rat)
Settings: for % Inhibition / Average Change: SHR n=2; for Response After AII / Response Change: individual rat, SHR
From the text: By administering a compound of this invention to a rat, and then challenging with angiotensin II, a blockage of the vasopressor response is realized.
Conscious Male Okamoto-Aoki SHR, 16-20 weeks old, weighing approximately 330 g are purchased from Charles River Labs (Wilmington, Mass.). Conscious rats are restrained in a supine position with elastic tape. The area at the base of the tail is locally anesthetized by subcutaneous infiltration with 2% procaine. The ventral caudal artery and vein are isolated, and a cannula made of polyethylene (PE) 10-20 tubing (fused together by heat) is passed into the lower abdominal aorta and vena cava, respectively. The cannula is secured, heparinized (1,000 I.U./ml), sealed and the wound is closed. The animals are placed in plastic restraining cages in an upright position. The cannula is attached to a Statham P23Db pressure transducer, and pulsatile blood pressure is recorded to 10-15 minutes with a Gould Brush recorder. (Chan et al., (Drug Development Res., 18:75-94, 1989).
Angiotensin II (human sequence, Sigma Chem. Co., St. Louis, Mo.) of 0.05 and 0.1 ug/kg i.v. is injected into all rats (predosing response). Then a test compound, vehicle or a known angiotensin II antagonist is administered i.v., i.p. or orally to each set of rats. The two doses of angiotensin II are given to each rat again at 30, 60, 90, 120, 180, 240 and 300 minutes post dosing the compound or vehicle. The vasopressor response of angiotensin II is measured for the increase in systolic blood pressure in mmHg. The percentage of antagonism or blockade of the vasopressor response of angiotensin II by a compound is calculated using the vasopressor response (increase in systolic blood pressure) of angiotensin II of each rat predosing the compound as 100%. A compound is considered active if at 30 mg/kg i.v. it antagonized at least 50% of the response.

[1] = 2 mg/kg i.v., AII 0.05 mcg/kg IV, 30 min post dose
[2] = 2 mg/kg i.v., AII 0.05 mcg/kg IV, 60 min post dose
[3] = 2 mg/kg i.v., AII 0.05 mcg/kg IV, 90 min post dose
[4] = 2 mg/kg i.v., AII 0.05 mcg/kg IV, 120 min post dose
[5] = 2 mg/kg i.v., AII 0.05 mcg/kg IV, 180 min post dose
[6] = 2 mg/kg i.v., AII 0.1 mcg/kg IV, 30 min post dose
[7] = 2 mg/kg i.v., AII 0.1 mcg/kg IV, 60 min post dose
[8] = 2 mg/kg i.v., AII 0.1 mcg/kg IV, 90 min post dose
[9] = 2 mg/kg i.v., AII 0.1 mcg/kg IV, 120 min post dose
[10] = 2 mg/kg i.v., AII 0.1 mcg/kg IV, 180 min post dose
[11] = 10 mg/kg i.v., AII 0.05 mcg/kg IV, 30 min post dose
[12] = 10 mg/kg i.v., AII 0.05 mcg/kg IV, 60 min post dose
[13] = 10 mg/kg i.v., AII 0.05 mcg/kg IV, 90 min post dose
[14] = 10 mg/kg i.v., AII 0.05 mcg/kg IV, 120 min post dose
[15] = 10 mg/kg i.v., AII 0.05 mcg/kg IV, 180 min post dose
[16] = 10 mg/kg i.v., AII 0.05 mcg/kg IV, 240 min post dose
[17] = 10 mg/kg i.v., AII 0.05 mcg/kg IV, 300 min post dose
[18] = 10 mg/kg i.v., AII 0.1 mcg/kg IV, 30 min post dose
[19] = 10 mg/kg i.v., AII 0.1 mcg/kg IV, 60 min post dose
[20] = 10 mg/kg i.v., AII 0.1 mcg/kg IV, 90 min post dose
[21] = 10 mg/kg i.v., AII 0.1 mcg/kg IV, 120 min post dose
[22] = 10 mg/kg i.v., AII 0.1 mcg/kg IV, 180 min post dose
[23] = 10 mg/kg i.v., AII 0.1 mcg/kg IV, 240 min post dose
[24] = 10 mg/kg i.v., AII 0.1 mcg/kg IV, 300 min post dose
[25] = 2 mg/kg i.v., AII 0.05 mcg/kg IV, 30 min post dose, 2 mg/kg
[26] = 2 mg/kg i.v., AII 0.05 mcg/kg IV, 60 min post dose, 2 mg/kg
[27] = 2 mg/kg i.v., AII 0.05 mcg/kg IV, 90 min post dose, 2 mg/kg
[28] = 2 mg/kg i.v., AII 0.05 mcg/kg IV, 180 min post dose, 2 mg/kg
[29] = 2 mg/kg i.v., AII 0.1 mcg/kg IV, 30 min post dose, 2 mg/kg
[30] = 2 mg/kg i.v., AII 0.1 mcg/kg IV, 60 min post dose, 2 mg/kg

## CCCCc1nc2ccc([C@@H]3C[C@H](CO)ON3C)cc2c(=O)n1Cc1ccc(-c2ccccc2-c2nn[nH]n2)cc1 (relative stereo) [Example 15, CIS-2-butyl-6-5-(hydroxymethyl)-2-methyl-3-isoxazolidinyl]-3-[[2'-(1H-tetrazol-5[1,1'-biphenyl]-4-yl]methyl]-4(3H)-quinazolinone]
[1]
  % Inhibition: 43%
  Average Change: 26 mmHg
[2]
  % Inhibition: 67%
  Average Change: 15 mmHg
  Response After AII: 245 mmHg
[3]
  % Inhibition: 67%
  Average Change: 15 mmHg
[4]
  % Inhibition: 67%
  Average Change: 15 mmHg
  Response Change: 15 mmHg
[5]
  % Inhibition: 43%
  Average Change: 26 mmHg
[6]
  % Inhibition: 38%
  Average Change: 30 mmHg
[7]
  % Inhibition: 45%
  Average Change: 26.5 mmHg
[8]
  % Inhibition: 48%
  Average Change: 25 mmHg
[9]
  % Inhibition: 62%
  Average Change: 18.5 mmHg
[10]
  % Inhibition: 54%
  Average Change: 22.5 mmHg
[11]
  % Inhibition: 78%
  Average Change: 10 mmHg
[12]
  % Inhibition: 99%
  Average Change: 0.5 mmHg
[13]
  % Inhibition: 89%
  Average Change: 5 mmHg
[14]
  % Inhibition: 72%
  Average Change: 12.5 mmHg
[15]
  % Inhibition: 56%
  Average Change: 20 mmHg
[16]
  % Inhibition: 67%
  Average Change: 15 mmHg
[17]
  % Inhibition: 70%
  Average Change: 13.5 mmHg
[18]
  % Inhibition: 100%
  Average Change: 0 mmHg
[19]
  % Inhibition: 80%
  Average Change: 9 mmHg
[20]
  % Inhibition: 72%
  Average Change: 12.5 mmHg
[21]
  % Inhibition: 72%
  Average Change: 12.5 mmHg
[22]
  % Inhibition: 52%
  Average Change: 21.5 mmHg
[23]
  % Inhibition: 52%
  Average Change: 21.5 mmHg
[24]
  % Inhibition: 28%
  Average Change: 32,5 mmHg
[25]
  Response After AII: 237 mmHg and 255 mmHg
  Response Change: 22 mmHg and 30 mmHg
[26]
  Response After AII: 225 mmHg
  Response Change: 25 mmHg and 5 mmHg
[27]
  Response After AII: 230 mmHg and 235 mmHg
  Response Change: 20 mmHg and 10 mmHg
2 mg/kg i.v., AII 0.05 mcg/kg IV, 120 min post dose, 2 mg/kg
  Response After AII: 220 mmHg and 230 mmHg
[28]
  Response After AII: 220 mmHg and 250 mmHg
  Response Change: 17 mmHg and 35 mmHg
[29]
  Response After AII: 245 mmHg and 250 mmHg
  Response Change: 25 mmHg and 35 mmHg
[30]
  Response After AII: 255 mmHg and 235 mmHg
  Response Change: 35 mmHg and 18 mmHg
